Data taken from ChEMBL document CHEMBL1177794, “Broad spectrum alkynyl inhibitors of T315I Bcr-Abl” (Bioorg Med Chem Lett, 2010).

What was measured:
Assay type in all cases: functional, cell-based
[1] = system: BaF3; assay: Antiproliferative activity against mouse BAF3 cells
[2] = system: BaF3; assay: Antiproliferative activity against mouse BAF3 cells expressing wild type Bcr-Abl
[3] = system: BaF3; assay: Antiproliferative activity against mouse BAF3 cells expressing Bcr-Abl T315I mutant

Row | SMILES | EC50 [1] | EC50 [2] | EC50 [3]
1 | CCN1CCN(Cc2ccc(NC(=O)c3ccc(C)c(C#Cc4cnc5[nH]c(C)cc5c4)c3)cc2C(F)(F)F)CC1 | 1000 nM | 26 nM | 560 nM
2 | CCN1CCN(Cc2ccc(NC(=O)c3ccc(C)c(C#Cc4cncnc4)c3)cc2C(F)(F)F)CC1 | 2190 nM | < 1 nM | 990 nM
3 | CCN1CCN(Cc2ccc(NC(=O)c3ccc(C)c(C#Cc4cnc5nccnc5c4)c3)cc2C(F)(F)F)CC1 | 3320 nM | 37 nM | 5520 nM
4 | CCN1CCN(Cc2ccc(NC(=O)c3ccc(C)c(C#Cc4cnc5[nH]cnc5c4)c3)cc2C(F)(F)F)CC1 | 60 nM | < 1 nM | 14 nM
5 | CCN1CCN(Cc2ccc(NC(=O)c3ccc(C)c(C#Cc4ccc(C(=O)NC)nc4)c3)cc2C(F)(F)F)CC1 | 3980 nM | 41 nM | 2580 nM
6 | Cc1cn(-c2cc(NC(=O)c3ccc(C)c(C#Cc4cnc5[nH]ccc5c4)c3)cc(C(F)(F)F)c2)cn1 | > 10000 nM | 37 nM | 470 nM
7 | Cc1cn(-c2cc(NC(=O)c3cccc(C#Cc4cnc5[nH]ccc5c4)c3)cc(C(F)(F)F)c2)cn1 | 2830 nM | 15 nM | 300 nM
8 | CCN1CCN(Cc2ccc(NC(=O)c3ccc(C)c(C#Cc4cnc(N)cn4)c3)cc2C(F)(F)F)CC1 | 860 nM | < 1 nM | 165 nM
9 | CCN1CCN(Cc2ccc(NC(=O)c3ccc(C)c(C#Cc4ccc(NC(=O)C5CC5)nc4)c3)cc2C(F)(F)F)CC1 | 1800 nM | < 1 nM | 13 nM
10 | CCN1CCN(Cc2ccc(NC(=O)c3ccc(C)c(C#Cc4coc5ccccc45)c3)cc2C(F)(F)F)CC1 | 6760 nM | 240 nM | 8370 nM
11 | CCN1CCN(Cc2ccc(NC(=O)c3cccc(C#Cc4cnc5[nH]ccc5c4)c3)cc2C(F)(F)F)CC1 | > 10000 nM | 11 nM | 220 nM
12 | CCN1CCN(Cc2ccc(C(=O)Nc3ccc(C)c(C#Cc4cnc5[nH]ccc5c4)c3)cc2C(F)(F)F)CC1 | 7860 nM | 70 nM | 2630 nM
13 | CCN1CCN(Cc2ccc(NC(=O)c3ccc(C)c(C#Cc4ccc(NC(C)=O)nc4)c3)cc2C(F)(F)F)CC1 | 2050 nM | < 1 nM | 10 nM
14 | CCN1CCN(Cc2ccc(NC(=O)c3ccc(C)c(C#Cc4cnccn4)c3)cc2C(F)(F)F)CC1 | 2490 nM | 6 nM | 3030 nM
